Measurements reported in patent US8003801B2 (The Scripps Research Institute, priority 2005, dated 2011).
Values joined by “and” are separate entries in the source; they are usually repeats but may differ in a detail not shown here. Equal values may be shown once. “Also recorded” adds a separate entry of the source. Read-outs that look alike come from different tables or passages of the source.

Assays:
[1] = tested on: KB-31 human epidermoid cancer cell line; experiment: 72 hour growth-inhibition (cytotoxicity) assay, KB-31 cells; type: cell-based; details: for IC50: Homo sapiens
[2] = tested on: 1A9/A8, EpoA-resistant 1A9 cell line (β274 Thr→Ile); experiment: 72 hour growth-inhibition (cytotoxicity) assay, 1A9/A8 cells; type: cell-based, human; details: for IC50: Homo sapiens, 1A9; for RRp (relative resistance), 1A9/A8: IC50 of 1A9/A8 divided by IC50 of the parental cell line; for RAEpoB (relative activity), 1A9/A8: ratio of IC50 of EpoB to IC50 of the tested compound in the concurrent assay
[3] = tested on: A2780/AD10, drug-resistant clone of human ovarian carcinoma A2780 overexpressing P-glycoprotein; experiment: 72 hour growth-inhibition (cytotoxicity) assay, A2780/AD10 cells; type: cell-based; details: for IC50: Homo sapiens, A2780, 72 hour growth inhibition, sulforhodamine-B staining, mean of 3-5 experiments ± SEM; for RRp (relative resistance), A2780/AD10: IC50 of A2780/AD10 divided by IC50 of the parental cell line; for potency enhancement over EpoB, A2780/AD10: PgP-overexpressing cell line
[4] = tested on: 1A9/PTX10, Taxol-resistant 1A9 cell line (β270 Phe→Val); experiment: 72 hour growth-inhibition (cytotoxicity) assay, 1A9/PTX10 cells; type: cell-based, human; details: for IC50: Homo sapiens, 1A9/ptx-10; for RRp (relative resistance), 1A9/PTX10: IC50 of 1A9/PTX10 divided by IC50 of the parental cell line 1A9; for RAEpoB (relative activity), 1A9/PTX10: ratio of IC50 of EpoB to IC50 of the tested compound in the concurrent assay
[5] = tested on: 1A9 human ovarian cancer cell line; experiment: 72 hour growth-inhibition (cytotoxicity) assay, 1A9 cells; type: cell-based; details: for IC50: Homo sapiens, 1A9; for RAEpoB (relative activity), 1A9: ratio of IC50 of EpoB to IC50 of the tested compound in the concurrent assay
[6] = tested on: drug-sensitive and drug-resistant human cancer cell lines; experiment: Cytotoxicity assays across the panel of cell lines (summary in words); type: cell-based; details: summary of Tables 1A-1C
[7] = tested on: KB-8511, Taxol-resistant (Pgp-overexpression) KB cell line; experiment: 72 hour growth-inhibition (cytotoxicity) assay, KB-8511 cells
Protocol: (§1) In addition, further cytotoxicity studies were carried out using a pair of drug-sensitive parental human epidermoid carcinoma cells (KB-31) and its Taxol™-resistant Pgp-overexpressing subline (KB-5811).

[8] = tested on: KB-8511, Taxol-resistant (Pgp-overexpression) KB cell line; details: human, 72 h
Protocol: as §1

[9] = KB 3-1, 72 h, read-out: KB-31 IC50
[10] = 72 hour growth inhibition, sulforhodamine-B staining, mean of 3-5 experiments ± SEM, read-out: 1A9/A8 IC50
[11] = 72 hour growth inhibition, sulforhodamine-B staining, mean of 3-5 experiments ± SEM, read-out: 1A9/PTX10 IC50
[12] = 72 hour growth inhibition, sulforhodamine-B staining, mean of 3-5 independent experiments ± standard error of the mean, read-out: 1A9 IC50
[13] = read-out: KB-8511 IC50, 72 hour growth inhibition, methylene blue staining, mean of 3-5 experiments ± SEM
[14] = KB 3-1, read-out: IC50, KB-31 (Table 2)
[15] = Table 2, tested epothilone, unit from Table 1A note a, read-out: IC50, 1A9/A8 (Table 2)
[16] = Table 2, tested epothilone, unit from Table 1A note a, read-out: IC50, 1A9/PTX10 (Table 2)
[17] = Table 2, tested epothilone, unit from Table 1A note a, read-out: IC50, 1A9 (Table 2)
[18] = read-out: IC50, KB-5811 (Table 2), Table 2, tested epothilone, cell line KB-5811, unit from Table 1A note a

Compound | IC50 [1, 9] | IC50 [2, 10] | RRp (relative resistance), 1A9/A8 [2] | IC50 [3] | IC50 [4, 11] | IC50 [5, 12] | cytotoxicity across the tested cell lines, in words [6] | IC50 [7, 13] | RRp (relative resistance), A2780/AD10 [3] | RRp (relative resistance), 1A9/PTX10 [4] | also measured
C/C(=C\c1ncnn1C)[C@@H]1C[C@@H]2O[C@]2(C)CCC[C@H](C)[C@H](O)[C@@H](C)C(=O)C(C)(C)[C@@H](O)CC(=O)O1 [Compound 9] | 382 ± 49.4 nM | 627 nM | 1.2 | > 750 nM | > 750 nM | 540 nM | significantly lower activities | > 1000 nM | – | – | –
C/C(=C\c1nc2ccccc2s1)[C@@H]1C[C@@H]2O[C@]2(C)CCC[C@H](C)[C@H](O)[C@@H](C)C(=O)C(C)(C)[C@@H](O)CC(=O)O1 [Compound 7] | 0.21 ± 0.07 nM | 0.7 ± 0.4 nM | 3.7 | 707 nM | 2.6 ± 2.5 nM | 0.19 ± 0.1 nM | excellent cytotoxicity across the range of cell lines, being more potent than EpoB | 0.08 ± 0.04 nM | 7.4 | 13.7 | IC50 [1, 14]: 0.21 nM; IC50 [2, 15]: 0.7 nM; RAEpoB (relative activity), 1A9/A8 [2]: 14.3; IC50 [4, 16]: 2.6 nM; RAEpoB (relative activity), 1A9/PTX10 [4]: 3.0; IC50 [5, 17]: 0.19 nM; RAEpoB (relative activity), 1A9 [5]: 5.2; IC50 [7, 18]: 0.08 nM
CSc1nc(/C=C(\C)[C@@H]2C[C@@H]3O[C@]3(C)CCC[C@H](C)[C@H](O)[C@@H](C)C(=O)C(C)(C)[C@@H](O)CC(=O)O2)cs1 [Compound 3, reference compound] | – | – | – | – | – | – | – | – | – | – | IC50 [8]: 0.07 nM; IC50 ([1]; KB 3-1, Table 2, tested epothilone, unit from Table 1A note a, read-out: IC50, KB-31 (Table 2)): 0.11 nM; IC50 [2, 15]: 1.3 nM; RAEpoB (relative activity), 1A9/A8 [2]: 5.0; IC50 [4, 16]: 0.26 nM; RAEpoB (relative activity), 1A9/PTX10 [4]: 14.2; IC50 [5, 17]: 0.17 nM; RAEpoB (relative activity), 1A9 [5]: 1.8
CC(=O)SCc1nc(/C=C(\C)[C@@H]2C[C@@H]3O[C@]3(C)CCC[C@H](C)[C@H](O)[C@@H](C)C(=O)C(C)(C)[C@@H](O)CC(=O)O2)cs1 [Compound 6] | 1.18 ± 0.12 nM | 49.8 ± 34.5 nM | 9.2 | 8.6 ± 3.3 nM | 28.2 ± 9.3 nM | 5.4 ± 1.1 nM | less potent than EpoB, exhibited high potency against several of the tested cell lines | 8.39 ± 1.37 nM | 45.3 | 5.2 | –
C/C(=C\c1nccn1C)[C@@H]1C[C@@H]2O[C@]2(C)CCC[C@H](C)[C@H](O)[C@@H](C)C(=O)C(C)(C)[C@@H](O)CC(=O)O1 [Compound 8] | 69.9 ± 5.31 nM | 242 nM | 2.5 | 760 nM | > 750 nM | 95.5 ± 13.4 nM | significantly lower activities | > 1000 nM | 1.4 | – | –
C/C(=C\C#N)[C@@H]1C[C@@H]2O[C@]2(C)CCC[C@H](C)[C@H](O)[C@@H](C)C(=O)C(C)(C)[C@@H](O)CC(=O)O1 [Compound 21] | 346 ± 10.5 nM | > 750 nM | – | > 150 nM | > 750 nM | > 750 nM | not found active; also recorded: devoid of any significant cytotoxicity against any of the cell lines tested | > 1000 nM | – | – | –
C/C(=C\c1ccn(-c2ccccc2)n1)[C@@H]1C[C@@H]2O[C@]2(C)CCC[C@H](C)[C@H](O)[C@@H](C)C(=O)C(C)(C)[C@@H](O)CC(=O)O1 [Compound 15] | 2.27 ± 0.16 nM | 4.8 ± 3.6 nM | 0.9 | 6.4 nM | 25.8 ± 19.8 nM | 5.45 ± 3.7 nM | somewhat less active | 1.62 ± 0.14 nM | 107 | 4.7 | –
C/C(=C\c1ccn(C)n1)[C@@H]1C[C@@H]2O[C@]2(C)CCC[C@H](C)[C@H](O)[C@@H](C)C(=O)C(C)(C)[C@@H](O)CC(=O)O1 [Compound 14] | 0.19 ± 0.01 nM | 0.8 ± 0.3 nM | 1.6 | 25.5 ± 15.1 nM | 1.7 ± 1.1 nM | 0.5 ± 0.3 nM | more potent cytotoxicities than EpoB across the board | 0.25 ± 0.04 nM | 4.7 | 3.4 | IC50 [1, 14]: 0.19 nM; IC50 [2, 15]: 0.8 nM; RAEpoB (relative activity), 1A9/A8 [2]: 12.5; potency enhancement over EpoB, A2780/AD10 [3]: 20 fold; IC50 [4, 16]: 1.7 nM; RAEpoB (relative activity), 1A9/PTX10 [4]: 4.6; IC50 [5, 17]: 0.5 nM; RAEpoB (relative activity), 1A9 [5]: 2.0; IC50 [7, 18]: 0.25 nM
CSCc1nc(/C=C(\C)[C@@H]2C[C@@H]3O[C@]3(C)CCC[C@H](C)[C@H](O)[C@@H](C)C(=O)C(C)(C)[C@@H](O)CC(=O)O2)cs1 [Compound 5] | 1.38 ± 0.05 nM | 18.6 ± 11.3 nM | 5.2 | 82.2 ± 49.6 nM | 43.3 ± 12 nM | 3.6 ± 1.4 nM | less potent than EpoB, exhibited high potency against several of the tested cell lines | 1.97 ± 0.25 nM | 15.2 | 12.0 | –
CSc1cc(/C=C(\C)[C@@H]2C[C@@H]3O[C@]3(C)CCC[C@H](C)[C@H](O)[C@@H](C)C(=O)C(C)(C)[C@@H](O)CC(=O)O2)nn1C [Compound 16] | 0.09 ± 0.01 nM | 0.6 ± 0.5 nM | 10.0 | 30.3 ± 17.7 nM | 0.1 nM | 0.06 ± 0.04 nM | the most potent of all compounds tested; also recorded: outperformed EpoB in all five cancer cell lines tested | 0.14 ± 0.01 nM | 8.2 | 1.7 | IC50 [1, 14]: 0.09 nM; potency increase as compared to EpoB, KB cell lines ([1]; KB cell lines (KB-31 and KB-8511 together)): 3-5 fold; potency (activity) increase as compared to EpoB, 1A9/A8 ([2]; EpoA-resistant cell line): 17 fold and 16.7 fold; IC50 [2, 15]: 0.6 nM; RAEpoB (relative activity), 1A9/A8 [2]: 16.7; potency enhancement over EpoB, A2780/AD10 [3]: 4 fold; IC50 [4, 16]: 0.1 nM; potency increase as compared to EpoB, 1A9/PTX10 ([4]; Taxol-resistant cell line): 78 fold and 78.0 fold; RAEpoB (relative activity), 1A9/PTX10 [4]: 78.0; potency (activity) increase as compared to EpoB, 1A9 ([5]; 1A9 parental cell line): 17 fold and 16.5 fold; IC50 [5, 17]: 0.06 nM; RAEpoB (relative activity), 1A9 [5]: 16.5; IC50 [7, 18]: 0.14 nM
CSc1nc(/C=C(\C)[C@@H]2C[C@@H]3O[C@]3(C)CCC[C@H](C)[C@H](O)[C@@H](C)C(=O)C(C)(C)[C@@H](O)CC(=O)O2)nc2c1ncn2C [Compound 19] | 0.36 ± 0.17 nM | 2.8 ± 2.2 nM | 2.8 | 67 ± 9.8 nM | 2 ± 1.5 nM | 1 ± 0.8 nM | – | 6.21 ± 0.86 nM | 16.8 | 2.0 | –
C/C(=C\c1nc(Cl)c2ncn(C)c2n1)[C@@H]1C[C@@H]2O[C@]2(C)CCC[C@H](C)[C@H](O)[C@@H](C)C(=O)C(C)(C)[C@@H](O)CC(=O)O1 [Compound 17] | 1.62 ± 0.22 nM | 4 ± 2.5 nM | 1.1 | 46.3 ± 33.2 nM | 13.6 ± 7.3 nM | 3.7 ± 1.5 nM | – | 20.2 ± 2.14 nM | 12.5 | 3.7 | –
C/C(=C\c1cn(C)cn1)[C@@H]1C[C@@H]2O[C@]2(C)CCC[C@H](C)[C@H](O)[C@@H](C)C(=O)C(C)(C)[C@@H](O)CC(=O)O1 [Compound 11] | 277 ± 122 nM | 150 nM | 0.8 | > 750 nM | > 750 nM | 181 ± 81.6 nM | – | > 1000 nM | – | – | –
C/C(=C\c1nnn(COCc2ccccc2)n1)[C@@H]1C[C@@H]2O[C@]2(C)CCC[C@H](C)[C@H](O)[C@@H](C)C(=O)C(C)(C)[C@@H](O)CC(=O)O1 [Compound 20] | 0.57 ± 0.08 nM | 16.8 ± 9.2 nM | 4.2 | > 750 nM | 49 ± 7 nM | 4 ± 0.3 nM | – | 4.44 ± 0.69 nM | – | 12.3 | –
